Converted amounts (≈) assume the structure as drawn.

The test system of data set [1] is Klebsiella pneumoniae ATCC 10031. In words: Antibacterial activity, agar dilution method (MIC). It counts as cell-based. Particulars: ATCC10031; Klebsiella pneumoniae ATCC 10031, agar dilution, pH 7; read-out: Minimum inhibitory concentration (MIC). The method, then:
(§1) The antibacterial activity was determined by the agar dilution method using a medium (pH 7) prepared by dissolving 3 g of Bacto-tryptone (Difco Laboratories), 3 g of meat extract, 1 g of yeast extract, 1 g of glucose and 16 g of agar in 1 liter of water.

In data set [2] the test system is Salmonella typhi ATCC 9992. Put plainly: Antibacterial activity, agar dilution method (MIC). Particulars: Salmonella enterica; Salmonella typhi ATCC 9992, agar dilution, pH 7; read-out: Minimum inhibitory concentration (MIC). Type of data set: cell-based. As for the experimental part: as §1
On the technique in general: In agar dilution the substance is mixed into plates at graded concentrations.

The subject of data set [3] is Bacillus subtilis No. 10707. Put plainly: Antibacterial activity, agar dilution method (MIC). Type of data set: cell-based. Particulars: Bacillus subtilis No. 10707, agar dilution, pH 7; read-out: Minimum inhibitory concentration (MIC). As for the experimental part:
as §1

Data set [4] has as its system Staphylococcus aureus ATCC 6538P. Put plainly: Antibacterial activity, agar dilution method (MIC). It counts as cell-based. Particulars: ATCC6538P, pH 7, read-out: Minimum inhibitory concentration (MIC). The method, then: as §1
The test system of data set [5] is Escherichia coli ATCC 26. Put plainly: Antibacterial activity, agar dilution method (MIC). It counts as cell-based. Particulars: ATCC26; Escherichia coli ATCC 26, agar dilution, pH 7; read-out: Minimum inhibitory concentration (MIC). The method, then:
as §1

Data set [6] concerns Sarcoma 180 solid tumor. Put plainly: Therapeutical effect against Sarcoma 180 solid tumor. It counts as in vivo, ddY male mice. Particulars: 10 days after implantation. As for the experimental part: Six ddY male mice each weighing about 20 g were used for each group, and 5×10^6 Sarcoma 180 solid tumor cells were implanted subcutaneously into the mice at the axilla. Twenty-four hours after the implantation, 0.2 ml of a phosphate buffer saline (hereinafter referred to as PBS) containing the DC-89 compound in the concentration shown in Table 3 was intraperitoneally administered once.
The composition of PBS was 0.8 g/dl NaCl, 0.02 g/dl KCl, […] Na2 HPO4 and 0.02 g/dl KH2 PO4 (pH 7.2).
For comparison, 0.2 ml of PBS containing mitomycin C was intraperitoneally administered 24 hours after implantation of the tumor cells.
Ten days after the implantation, T/C [T: average tumor volume (mm^3) of the test groups, C: average tumor volume (mm^3) of the control group which received an intraperitoneal administration of 0.2 ml of PBS] was determined.

The nature of data set [7]: Acute toxicity (LD50), intraperitoneal, mice. Particulars: mouse, in vivo, ip.
Data set [8] is described as follows: Solubility. Type of data set: physicochemical.
Data set [9] concerns lymphocytic leukemia P388. In words: Therapeutical effect against lymphocytic leukemia P388. It counts as in vivo, male CDF1 mice. As for the experimental part: Five male CDF1 mice each weighing about 22 g were used for each group, and 1×10^6 cells of lymphocytic leukemia P388 tumor cells were implanted intraperitoneally into the mice. Twenty-four hours after the implantation, 0.2 ml of PBS containing the DC-89 compound was intraperitoneally administered once. For comparison, 0.2 ml of PBS containing mitomycin C was intraperitoneally administered 24 hours after implantation of the tumor cells. The increased life span (T/C) [T: mean survival time (days) of the test groups, C: mean survival time (days) of the control group which received an intraperitoneal administration of 0.2 ml of PBS] after the implantation is shown in Table 4.

Where [10] appears, read: in methanol, ethanol, ethyl acetate, acetone, chloroform and dimethylsulfoxide.
[11] abbreviates: 4 mg/kg, i.p. 24 h after implantation.

Consider `COC(=O)C1(C)Nc2c(O)cc3c(c2C1=O)C(CCl)CN3C(=O)c1cc2cc(OC)c(OC)c(OC)c2[nH]1` (centres unmarked) [DC-89A2], for which the MIC in data set [1] amounted to 0.42 µg/mL (≈ 0.772 µM); in data set [2] it was 10.4 µg/mL (≈ 19.1 µM); in data set [3], 0.0065 µg/mL (≈ 0.0119 µM); in data set [4], 0.052 µg/mL (≈ 0.0956 µM); in [5], 5.2 µg/mL (≈ 9.56 µM). The “T/C (average tumor volume)” value in [6] (3 mg/kg, i.p. once 24 h after implantation) came to 0.19. Moreover, the LD50 in data set [7] was approximately 3.83 mg/kg. The Solubility result was “readily soluble” in data set [8] (setting [10]); “sparingly soluble” in [8] (in water and n-hexane). Further, the “Increased Life Span (T/C) (mean survival time)” value (shortened to “Increased Life Span (T/C)”) in data set [9] (0.125 mg/kg, i.p. once 24 h after implantation) is 1.35.
For the compound `COC(=O)C1(C)Nc2c(O)cc3c(c2C1=O)CC(Br)CN3C(=O)c1cc2cc(OC)c(OC)c(OC)c2[nH]1` (centres unmarked) [DC-89B1], the MIC in data set [1] was found to be 0.026 µg/mL (≈ 0.0442 µM); in data set [2], 1.3 µg/mL (≈ 2.21 µM); in data set [3], 0.013 µg/mL (≈ 0.0221 µM); in data set [4], 0.0008 µg/mL (≈ 0.00136 µM); in [5], 0.33 µg/mL (≈ 0.561 µM). In addition, the “T/C (average tumor volume)” value in [6] (0.5 mg/kg, i.p. once 24 h after implantation) worked out at 0.22. The compound also gave an LD50 in [7] of approximately 0.37 mg/kg. Moreover, the Solubility entry in data set [8] (setting [10]) is recorded as “readily soluble”; in [8] (in water and n-hexane), “sparingly soluble”. Moreover, the “Increased Life Span (T/C)” value in data set [9] (0.0156 mg/kg, i.p. once 24 h after implantation) was determined as 1.35.
On to `COC(=O)C1(C)Nc2c(O)cc3c(c2C1=O)C(CBr)CN3C(=O)c1cc2cc(OC)c(OC)c(OC)c2[nH]1` (centres unmarked) [DC-89B2], for which the MIC was 0.1 µg/mL (≈ 0.17 µM) in data set [1]; 2.6 µg/mL (≈ 4.42 µM) in data set [2]; 0.0033 µg/mL (≈ 0.00561 µM) in data set [3]; 0.0033 µg/mL (≈ 0.00561 µM) in [4]; 1.3 µg/mL (≈ 2.21 µM) in data set [5]. In addition, the “T/C (average tumor volume)” value in data set [6] (0.25 mg/kg, i.p. once 24 h after implantation) is listed as 0.28. This compound also displayed an LD50 in [7] of approximately 0.28 mg/kg. Also, the Solubility result in data set [8] (setting [10]) is “readily soluble”; in [8] (in water and n-hexane), “sparingly soluble”. Moreover, in data set [9] (0.0781 mg/kg, i.p. once 24 h after implantation), the “Increased Life Span (T/C)” value stood at 1.19.
`CO[C@@]12[C@H](COC(N)=O)C3=C(C(=O)C(C)=C(N)C3=O)N1C[C@@H]1N[C@@H]12` [Mitomycin C, mitomycin C, reference compound]: the “T/C (average tumor volume)” value in data set [6] (setting [11]) came out at 0.30. Besides, the “Increased Life Span (T/C)” value in [9] (setting [11]) is 1.66.

The LD50 is the dose at which mortality reaches 50%. Read a high LD50 as lower toxicity.

The record behind these values is patent US5138059A, “DC-89 compounds and process for their preparation” (priority 1988, dated 1992).
